Assay results published in patent US20240239863A1, “GIP RECEPTOR AGONIST AND USE THEREOF” (HANGZHOU ZHONGMEIHUADONG PHARMACEUTICAL CO., LTD., priority 2022, published 2024).
Non-standard residues stand in square brackets, D forms with d. Residues, ends and D or L forms follow the SMILES beside them. Aib = CC(C)(N)C(=O)O

These molecules were tested against hGLP-1R (Homo sapiens, UniProt P43220) (assay: Cell agonistic activity at GLP-1 receptor (Example 7)).
Assay type: cell-based

hGLP-1R, sequence (P43220 24-463): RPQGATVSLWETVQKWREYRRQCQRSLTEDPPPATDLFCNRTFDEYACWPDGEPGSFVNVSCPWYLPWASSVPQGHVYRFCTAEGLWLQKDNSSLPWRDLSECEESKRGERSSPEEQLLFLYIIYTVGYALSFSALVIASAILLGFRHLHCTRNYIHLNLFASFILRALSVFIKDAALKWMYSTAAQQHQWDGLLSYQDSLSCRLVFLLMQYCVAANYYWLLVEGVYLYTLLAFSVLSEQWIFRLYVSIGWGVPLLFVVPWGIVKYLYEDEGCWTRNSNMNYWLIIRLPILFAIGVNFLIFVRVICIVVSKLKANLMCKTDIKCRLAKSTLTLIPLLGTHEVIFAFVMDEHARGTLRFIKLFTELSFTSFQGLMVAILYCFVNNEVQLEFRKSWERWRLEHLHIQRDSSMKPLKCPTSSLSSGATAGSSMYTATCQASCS

Row | SMILES | EC50
1 | CC[C@H](C)[C@H](NC(=O)[C@H](CO)NC(=O)[C@H](Cc1ccc(O)cc1)NC(=O)[C@H](CC(=O)O)NC(=O)[C@H](CO)NC(=O)[C@@H](NC(=O)[C@H](Cc1ccccc1)NC(=O)[C@@H](NC(=O)CNC(=O)[C@H](CCC(=O)O)NC(=O)C(C)(C)NC(=O)[C@@H](N)Cc1ccc(O)cc1)[C@@H](C)O)[C@@H](C)CC)C(=O)N[C@@H](C)C(=O)N[C@@H](CC(C)C)C(=O)N[C@@H](CC(=O)O)C(=O)N[C@@H](CCCCN)C(=O)N[C@H](C(=O)N[C@@H](Cc1c[nH]cn1)C(=O)N[C@@H](CCC(N)=O)C(=O)N[C@@H](CCC(N)=O)C(=O)N[C@@H](CC(=O)O)C(=O)N[C@@H](Cc1ccccc1)C(=O)N[C@H](C(=O)N[C@@H](CC(N)=O)C(=O)N[C@@H](Cc1c[nH]c2ccccc12)C(=O)N[C@@H](CC(C)C)C(=O)N[C@@H](CC(C)C)C(=O)N[C@@H](C)C(=O)N[C@@H](CCC(N)=O)C(=O)N[C@@H](CCCNC(=N)N)C(=O)NCC(=O)O)C(C)C)[C@@H](C)CC [Sequence 7] (H-Y[Aib]EGTFISDYSIALDKIHQQDFVNWLLAQRG-OH; N-terminus and C-terminus assumed) | > 0.1 nM
2 | CC[C@H](C)[C@H](NC(=O)[C@H](CO)NC(=O)[C@H](Cc1ccc(O)cc1)NC(=O)[C@H](CC(=O)O)NC(=O)[C@H](CO)NC(=O)[C@@H](NC(=O)[C@H](Cc1ccccc1)NC(=O)[C@@H](NC(=O)CNC(=O)[C@H](CCC(=O)O)NC(=O)C(C)(C)NC(=O)[C@@H](N)Cc1ccc(O)cc1)[C@@H](C)O)[C@@H](C)CC)C(=O)N[C@@H](C)C(=O)N[C@@H](CC(C)C)C(=O)N[C@@H](CC(=O)O)C(=O)N[C@@H](CCCCN)C(=O)N[C@@H](CC(C)C)C(=O)N[C@@H](Cc1c[nH]cn1)C(=O)N[C@@H](CCC(N)=O)C(=O)N[C@@H](CCC(=O)O)C(=O)N[C@@H](CC(=O)O)C(=O)N[C@@H](Cc1ccccc1)C(=O)N[C@H](C(=O)N[C@@H](CC(N)=O)C(=O)N[C@@H](Cc1c[nH]c2ccccc12)C(=O)N[C@@H](CC(C)C)C(=O)N[C@@H](CC(C)C)C(=O)N[C@@H](C)C(=O)N[C@@H](CCC(N)=O)C(=O)N[C@@H](CCCNC(=N)N)C(=O)NCC(=O)O)C(C)C [Sequence 10] (H-Y[Aib]EGTFISDYSIALDKLHQEDFVNWLLAQRG-OH; N-terminus and C-terminus assumed) | > 0.1 nM
3 | CC[C@H](C)[C@H](NC(=O)[C@H](CO)NC(=O)[C@H](Cc1ccc(O)cc1)NC(=O)[C@H](CC(=O)O)NC(=O)[C@H](CO)NC(=O)[C@@H](NC(=O)[C@H](Cc1ccccc1)NC(=O)[C@@H](NC(=O)CNC(=O)[C@H](CCC(=O)O)NC(=O)C(C)(C)NC(=O)[C@@H](N)Cc1ccc(O)cc1)[C@@H](C)O)[C@@H](C)CC)C(=O)N[C@@H](C)C(=O)N[C@@H](CC(C)C)C(=O)N[C@@H](CC(=O)O)C(=O)N[C@@H](CCC(=O)O)C(=O)N[C@H](C(=O)N[C@@H](Cc1c[nH]cn1)C(=O)N[C@@H](CCC(N)=O)C(=O)N[C@@H](CCCCN)C(=O)N[C@@H](CC(=O)O)C(=O)N[C@@H](Cc1ccccc1)C(=O)N[C@H](C(=O)N[C@@H](CCCCN)C(=O)N[C@@H](Cc1c[nH]c2ccccc12)C(=O)N[C@@H](CC(C)C)C(=O)N[C@@H](CC(C)C)C(=O)N[C@@H](C)C(=O)N[C@@H](CCC(N)=O)C(=O)N[C@@H](CCCCN)C(=O)NCC(=O)O)C(C)C)[C@@H](C)CC [Sequence 4] (H-Y[Aib]EGTFISDYSIALDEIHQKDFVKWLLAQKG-OH; N-terminus and C-terminus assumed) | > 0.1 nM
4 | CC[C@H](C)[C@H](NC(=O)[C@H](CO)NC(=O)[C@H](Cc1ccc(O)cc1)NC(=O)[C@H](CC(=O)O)NC(=O)[C@H](CO)NC(=O)[C@@H](NC(=O)[C@H](Cc1ccccc1)NC(=O)[C@@H](NC(=O)CNC(=O)[C@H](CCC(=O)O)NC(=O)C(C)(C)NC(=O)[C@@H](N)Cc1ccc(O)cc1)[C@@H](C)O)[C@@H](C)CC)C(=O)N[C@@H](C)C(=O)N[C@@H](CC(C)C)C(=O)N[C@@H](CC(=O)O)C(=O)N[C@@H](CCCNC(=N)N)C(=O)N[C@@H](CC(C)C)C(=O)N[C@@H](Cc1c[nH]cn1)C(=O)N[C@@H](CCC(N)=O)C(=O)N[C@@H](CCC(=O)O)C(=O)N[C@@H](CC(=O)O)C(=O)N[C@@H](Cc1ccccc1)C(=O)N[C@H](C(=O)N[C@@H](CCCCN)C(=O)N[C@@H](Cc1c[nH]c2ccccc12)C(=O)N[C@@H](CC(C)C)C(=O)N[C@@H](CC(C)C)C(=O)N[C@@H](C)C(=O)N[C@@H](CCC(N)=O)C(=O)N[C@@H](CCCNC(=N)N)C(=O)NCC(=O)O)C(C)C [Sequence 15] (H-Y[Aib]EGTFISDYSIALDRLHQEDFVKWLLAQRG-OH; N-terminus and C-terminus assumed) | > 0.1 nM
5 | CC[C@H](C)[C@H](NC(=O)[C@H](CO)NC(=O)[C@H](Cc1ccc(O)cc1)NC(=O)[C@H](CC(=O)O)NC(=O)[C@H](CO)NC(=O)[C@@H](NC(=O)[C@H](Cc1ccccc1)NC(=O)[C@@H](NC(=O)CNC(=O)[C@H](CCC(=O)O)NC(=O)C(C)(C)NC(=O)[C@@H](N)Cc1ccc(O)cc1)[C@@H](C)O)[C@@H](C)CC)C(=O)N[C@@H](C)C(=O)N[C@@H](CC(C)C)C(=O)N[C@@H](CC(=O)O)C(=O)N[C@@H](CCCCN)C(=O)N[C@H](C(=O)N[C@@H](Cc1c[nH]cn1)C(=O)N[C@@H](CCC(N)=O)C(=O)N[C@@H](CCC(=O)O)C(=O)N[C@@H](CC(=O)O)C(=O)N[C@@H](Cc1ccccc1)C(=O)N[C@H](C(=O)N[C@@H](CCCCN)C(=O)N[C@@H](Cc1c[nH]c2ccccc12)C(=O)N[C@@H](CC(C)C)C(=O)N[C@@H](CC(C)C)C(=O)N[C@@H](C)C(=O)N[C@@H](CCC(N)=O)C(=O)N[C@@H](CCCCN)C(=O)NCC(=O)O)C(C)C)[C@@H](C)CC [Sequence 3] (H-Y[Aib]EGTFISDYSIALDKIHQEDFVKWLLAQKG-OH; N-terminus and C-terminus assumed) | > 0.1 nM
6 | CC[C@H](C)[C@H](NC(=O)[C@H](CO)NC(=O)[C@H](Cc1ccc(O)cc1)NC(=O)[C@H](CC(=O)O)NC(=O)[C@H](CO)NC(=O)[C@@H](NC(=O)[C@H](Cc1ccccc1)NC(=O)[C@@H](NC(=O)CNC(=O)[C@H](CCC(=O)O)NC(=O)C(C)(C)NC(=O)[C@@H](N)Cc1ccc(O)cc1)[C@@H](C)O)[C@@H](C)CC)C(=O)N[C@@H](C)C(=O)N[C@@H](CC(C)C)C(=O)N[C@@H](CC(=O)O)C(=O)N[C@@H](CCCNC(=N)N)C(=O)N[C@H](C(=O)N[C@@H](Cc1c[nH]cn1)C(=O)N[C@@H](CCC(N)=O)C(=O)N[C@@H](CCC(=O)O)C(=O)N[C@@H](CC(=O)O)C(=O)N[C@@H](Cc1ccccc1)C(=O)N[C@H](C(=O)N[C@@H](CC(N)=O)C(=O)N[C@@H](Cc1c[nH]c2ccccc12)C(=O)N[C@@H](CC(C)C)C(=O)N[C@@H](CC(C)C)C(=O)N[C@@H](C)C(=O)N[C@@H](CCC(N)=O)C(=O)N[C@@H](CCCCN)C(=O)NCC(=O)O)C(C)C)[C@@H](C)CC [Sequence 12] (H-Y[Aib]EGTFISDYSIALDRIHQEDFVNWLLAQKG-OH; N-terminus and C-terminus assumed) | > 0.1 nM
7 | CC[C@H](C)[C@H](NC(=O)[C@H](CO)NC(=O)[C@H](Cc1ccc(O)cc1)NC(=O)[C@H](CC(=O)O)NC(=O)[C@H](CO)NC(=O)[C@@H](NC(=O)[C@H](Cc1ccccc1)NC(=O)[C@@H](NC(=O)CNC(=O)[C@H](CCC(=O)O)NC(=O)C(C)(C)NC(=O)[C@@H](N)Cc1ccc(O)cc1)[C@@H](C)O)[C@@H](C)CC)C(=O)N[C@@H](C)C(=O)N[C@@H](CC(C)C)C(=O)N[C@@H](CC(=O)O)C(=O)N[C@@H](CCCCN)C(=O)N[C@@H](CC(C)C)C(=O)N[C@@H](Cc1c[nH]cn1)C(=O)N[C@@H](CCC(N)=O)C(=O)N[C@@H](CCC(N)=O)C(=O)N[C@@H](CC(=O)O)C(=O)N[C@@H](Cc1ccccc1)C(=O)N[C@H](C(=O)N[C@@H](CC(N)=O)C(=O)N[C@@H](Cc1c[nH]c2ccccc12)C(=O)N[C@@H](CC(C)C)C(=O)N[C@@H](CC(C)C)C(=O)N[C@@H](C)C(=O)N[C@@H](CCC(N)=O)C(=O)N[C@@H](CCCNC(=N)N)C(=O)NCC(=O)O)C(C)C [Sequence 8] (H-Y[Aib]EGTFISDYSIALDKLHQQDFVNWLLAQRG-OH; N-terminus and C-terminus assumed) | > 0.1 nM
8 | CC[C@H](C)[C@H](NC(=O)[C@H](CO)NC(=O)[C@H](Cc1ccc(O)cc1)NC(=O)[C@H](CC(=O)O)NC(=O)[C@H](CO)NC(=O)[C@@H](NC(=O)[C@H](Cc1ccccc1)NC(=O)[C@@H](NC(=O)CNC(=O)[C@H](CCC(=O)O)NC(=O)C(C)(C)NC(=O)[C@@H](N)Cc1ccc(O)cc1)[C@@H](C)O)[C@@H](C)CC)C(=O)N[C@@H](C)C(=O)N[C@@H](CC(C)C)C(=O)N[C@@H](CC(=O)O)C(=O)N[C@@H](CCCNC(=N)N)C(=O)N[C@H](C(=O)N[C@@H](Cc1c[nH]cn1)C(=O)N[C@@H](CCC(N)=O)C(=O)N[C@@H](CCC(N)=O)C(=O)N[C@@H](CC(=O)O)C(=O)N[C@@H](Cc1ccccc1)C(=O)N[C@H](C(=O)N[C@@H](CC(N)=O)C(=O)N[C@@H](Cc1c[nH]c2ccccc12)C(=O)N[C@@H](CC(C)C)C(=O)N[C@@H](CC(C)C)C(=O)N[C@@H](C)C(=O)N[C@@H](CCC(N)=O)C(=O)N[C@@H](CCCCN)C(=O)NCC(=O)O)C(C)C)[C@@H](C)CC [Sequence 14] (H-Y[Aib]EGTFISDYSIALDRIHQQDFVNWLLAQKG-OH; N-terminus and C-terminus assumed) | > 0.1 nM
9 | CC[C@H](C)[C@H](NC(=O)[C@H](CO)NC(=O)[C@H](Cc1ccc(O)cc1)NC(=O)[C@H](CC(=O)O)NC(=O)[C@H](CO)NC(=O)[C@@H](NC(=O)[C@H](Cc1ccccc1)NC(=O)[C@@H](NC(=O)CNC(=O)[C@H](CCC(=O)O)NC(=O)C(C)(C)NC(=O)[C@@H](N)Cc1ccc(O)cc1)[C@@H](C)O)[C@@H](C)CC)C(=O)N[C@@H](C)C(=O)N[C@@H](CC(C)C)C(=O)N[C@@H](CC(=O)O)C(=O)N[C@@H](CCC(=O)O)C(=O)N[C@@H](CC(C)C)C(=O)N[C@@H](Cc1c[nH]cn1)C(=O)N[C@@H](CCC(N)=O)C(=O)N[C@@H](CCCCN)C(=O)N[C@@H](CC(=O)O)C(=O)N[C@@H](Cc1ccccc1)C(=O)N[C@H](C(=O)N[C@@H](CC(N)=O)C(=O)N[C@@H](Cc1c[nH]c2ccccc12)C(=O)N[C@@H](CC(C)C)C(=O)N[C@@H](CC(C)C)C(=O)N[C@@H](C)C(=O)N[C@@H](CCC(N)=O)C(=O)N[C@@H](CCCNC(=N)N)C(=O)NCC(=O)O)C(C)C [Sequence 6] (H-Y[Aib]EGTFISDYSIALDELHQKDFVNWLLAQRG-OH; N-terminus and C-terminus assumed) | > 0.1 nM
